Experimental data from PubChem BioAssay AID1963971 (Molecular Pharmacology Branch, DTP, NCI, 2024).
pIC50: −log10 of the molar value.

Test system: 953936-095-R-J2-PDC spheroids with HUVEC/MSC, viability
Test: Anticancer human tumor 953936-095-R-J2-PDC patient-derived cervical squamous cell carcinoma cell line growth inhibition [PI3K]
Conditions: for pIC50: curve of first compound; for viability, T/C: stronger effect = lower value
Source text: Combinatorial screen of targeted agents with the PI3K inhibitors inavolisib, alpelisib, duvelisib, and copanlisib in multi-cell type tumor spheroids
A high-throughput screen of multi-cell type tumor spheroids was designed to identify active combinations of targeted small molecules and PI3K pathway inhibitors. Complex spheroids include a stromal component modeled by human endothelial cells (HUVEC) and fibroblasts modeled by human mesenchymal stem cells (MSCs). The concentration ranges selected for each drug and investigational agent were based upon clinically achievable concentrations if the clinical Cmax of the agent was known.
Compounds. The drugs and investigational agents: inavolisib (NSC800729), alpelisib (NSC765974), duvelisib (NSC772469), copanlisib (NSC816437), ipatasertib (NSC767898), afuresertib (NSC778305), talazoparib (NSC767125), sapanisertib (NSC764658), selumetinib (NSC741078), tovorafenib (DAY101, NSC766906), vemurafenib (NSC761431), ravoxertinib (NSC781343), sotorasib (NSC818433), MRTX1133 (NSC 836407), abemaciclib (NSC 768073), palbociclib (NSC758247), venetoclax (NSC 766270), SY5609 (NSC837396), enzalutamide (NSC755605), and darolutamide (NSC825331), were obtained from the National Cancer Institute (NCI) Developmental Therapeutics Program Chemical Repository. The FDA-approved anticancer drug set is available from the NCI Developmental Therapeutics Program. […] The stock solutions were prepared in dimethyl sulfoxide (DMSO, Sigma-Aldrich, St. Louis, MO, cat. D2650) at 800-fold the tested concentration and stored at -70 degrees C prior to their use. All drugs and investigational agents were tested over a range starting from a high concentration at or near the clinical Cmax and decreasing in half-log increments. If the clinical Cmax for an agent had not been determined, the highest concentration tested was 10 microM.
Cell Culture. All cells were maintained in an incubator at 37 degrees C and 5% CO2 with 95% humidity. The PDC lines were cultured according to standard operating procedures established by the NCI PDMR (https://pdmr.cancer.gov/sops/default.htm). All PDCs were thawed and cultured in Matrigel-coated flasks prepared with a working solution of 1X Ham's F-12 nutrient mix, without supplementation (Invitrogen, Waltham, MA, cat. 11765054), 100 U/mL penicillin-streptomycin (Invitrogen, cat. 15140122), and 2.5% Matrigel (Corning Inc., Corning, NY, cat. 354248) for the first three passages. The 354836-022-R-J1-PDC, 475296-252-R-J1-PDC, and 997726-040-R-J2-PDC lines were cultured in 6A media, which includes advanced DMEM/F-12 (Thermo Fisher Scientific, cat. 12634028), 10 mM HEPES (Thermo Fisher Scientific, cat. 15630080), 1X GlutaMAX supplement (Thermo Fisher Scientific, cat. 35050061), 0.1 mg/mL primocin (InvivoGen, San Diego, CA, cat. ant-pm-2), 10% defined fetal bovine serum, heat inactivated (HyClone Laboratories Inc., Logan, UT, cat. SH30070.03HI), 50% L-WRN conditioned media (ATCC, cat. CRL-3276), 1.25 mM N-Acetyl-L-cysteine (Sigma-Aldrich, cat. A9165), 10 mM nicotinamide (Sigma-Aldrich, cat. N0636), 1X B-27 supplement (Thermo Fisher Scientific, cat. 17504044), 1X N-2 supplement (Thermo Fisher Scientific, cat. 17502048), and 10 microM Y-27632 dihydrochloride (Tocris Bioscience, Bristol, United Kingdom, cat. 1254). The 624824-186-R-J2-PDC line was cultured in 6C/Colon 1B media, which includes all 6A media components plus 50 ng/mL human EGF recombinant protein (Thermo Fisher Scientific, cat. PHG0311). […]

[1] = second compound 0.0316 µM, first compound 0.00316 µM
[2] = second compound 0.0316 µM, first compound 0.01 µM
[3] = second compound 0.0316 µM, first compound 0.0316 µM
[4] = second compound 0.0316 µM, first compound 0.1 µM
[5] = second compound 0.1 µM, first compound 0.00316 µM
[6] = second compound 0.1 µM, first compound 0.01 µM
[7] = second compound 0.1 µM, first compound 0.0316 µM
[8] = second compound 0.1 µM, first compound 0.1 µM
[9] = second compound 0.316 µM, first compound 0.00316 µM
[10] = second compound 0.316 µM, first compound 0.01 µM
[11] = second compound 0.316 µM, first compound 0.0316 µM
[12] = second compound 0.316 µM, first compound 0.1 µM
[13] = second compound 1 µM, first compound 0.00316 µM
[14] = second compound 1 µM, first compound 0.01 µM
[15] = second compound 1 µM, first compound 0.0316 µM
[16] = second compound 1 µM, first compound 0.1 µM
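Note: spheroids exposed to compounds for seven days before read-out.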

CC(C)n1nc(-c2ccc3oc(N)nc3c2)c2c(N)ncnc21 + Cc1nc(NC(=O)N2CCCC2C(N)=O)sc1-c1ccnc(C(C)(C)C(F)(F)F)c1
pIC50 (second compound 0.0316 µM): 7.61 | pIC50 (second compound 0.1 µM): 7.73 | pIC50 (second compound 0.316 µM): 8.14 | pIC50 (second compound 1 µM): > 9.50 | pIC50 (second compound 3.16 µM): > 9.50 | pIC50 (second compound 10 µM): > 9.50 | viability, T/C (second compound 0.0316 µM, first compound 0.000316 µM): 83% | viability, T/C (second compound 0.0316 µM, first compound 0.001 µM): 86.6% | viability, T/C [1]: 78.5% | viability, T/C [2]: 68.2% | viability, T/C [3]: 44.8% | viability, T/C [4]: 16.1% | viability, T/C (second compound 0.1 µM, first compound 0.000316 µM): 78.4% | viability, T/C (second compound 0.1 µM, first compound 0.001 µM): 74.6% | viability, T/C [5]: 69.2% | viability, T/C [6]: 64.1% | viability, T/C [7]: 39.2% | viability, T/C [8]: 15.2% | viability, T/C (second compound 0.316 µM, first compound 0.000316 µM): 66% | viability, T/C (second compound 0.316 µM, first compound 0.001 µM): 60.7% | viability, T/C [9]: 56.8% | viability, T/C [10]: 48.7% | viability, T/C [11]: 30.8% | viability, T/C [12]: 11.8% | viability, T/C (second compound 1 µM, first compound 0.000316 µM): 45.9% | viability, T/C (second compound 1 µM, first compound 0.001 µM): 42.9% | viability, T/C [13]: 38.4% | viability, T/C [14]: 33.9% | viability, T/C [15]: 19.7% | viability, T/C [16]: 8.92% | viability, T/C (second compound 3.16 µM, first compound 0.000316 µM): 26% | viability, T/C (second compound 3.16 µM, first compound 0.001 µM): 24.1% | viability, T/C (second compound 3.16 µM, first compound 0.00316 µM): 21.5% | viability, T/C (second compound 3.16 µM, first compound 0.01 µM): 18.3% | viability, T/C (second compound 3.16 µM, first compound 0.0316 µM): 10.8% | viability, T/C (second compound 3.16 µM, first compound 0.1 µM): 5.88% | viability, T/C (second compound 10 µM, first compound 0.000316 µM): 11.7% | viability, T/C (second compound 10 µM, first compound 0.001 µM): 10.8% | viability, T/C (second compound 10 µM, first compound 0.00316 µM): 10.2% | viability, T/C (second compound 10 µM, first compound 0.01 µM): 9.27% | viability, T/C (second compound 10 µM, first compound 0.0316 µM): 6.73% | viability, T/C (second compound 10 µM, first compound 0.1 µM): 3.32%

CCN1CCN(Cc2ccc(Nc3ncc(F)c(-c4cc(F)c5nc(C)n(C(C)C)c5c4)n3)nc2)CC1 + COc1c(OCCCN2CCOCC2)ccc2c3n(c(=NC(=O)c4cnc(N)nc4)nc12)CCN3
pIC50 (second compound 0.00316 µM): < 6.00 | pIC50 (second compound 0.01 µM): < 6.00 | pIC50 (second compound 0.0316 µM): > 8.50 | pIC50 (second compound 0.1 µM): > 8.50 | pIC50 (second compound 0.316 µM): > 8.50 | pIC50 (second compound 1 µM): > 8.50 | viability, T/C (second compound 0.00316 µM, first compound 0.00316 µM): 92.5% | viability, T/C (second compound 0.00316 µM, first compound 0.01 µM): 91.2% | viability, T/C (second compound 0.00316 µM, first compound 0.0316 µM): 87% | viability, T/C (second compound 0.00316 µM, first compound 0.1 µM): 91.7% | viability, T/C (second compound 0.00316 µM, first compound 0.316 µM): 76.5% | viability, T/C (second compound 0.00316 µM, first compound 1 µM): 67.7% | viability, T/C (second compound 0.01 µM, first compound 0.00316 µM): 70.8% | viability, T/C (second compound 0.01 µM, first compound 0.01 µM): 75% | viability, T/C (second compound 0.01 µM, first compound 0.0316 µM): 69.7% | viability, T/C (second compound 0.01 µM, first compound 0.1 µM): 60.7% | viability, T/C (second compound 0.01 µM, first compound 0.316 µM): 56% | viability, T/C (second compound 0.01 µM, first compound 1 µM): 55.5% | viability, T/C [1]: 40.5% | viability, T/C [2]: 40.9% | viability, T/C [3]: 37.7% | viability, T/C [4]: 33.1% | viability, T/C (second compound 0.0316 µM, first compound 0.316 µM): 35.9% | viability, T/C (second compound 0.0316 µM, first compound 1 µM): 31.7% | viability, T/C [5]: 20% | viability, T/C [6]: 17.5% | viability, T/C [7]: 15.2% | viability, T/C [8]: 13.8% | viability, T/C (second compound 0.1 µM, first compound 0.316 µM): 14.2% | viability, T/C (second compound 0.1 µM, first compound 1 µM): 15.6% | viability, T/C [9]: 6% | viability, T/C [10]: 5.63% | viability, T/C [11]: 4.91% | viability, T/C [12]: 5.77% | viability, T/C (second compound 0.316 µM, first compound 0.316 µM): 4.23% | viability, T/C (second compound 0.316 µM, first compound 1 µM): 6.22% | viability, T/C [13]: 1.99% | viability, T/C [14]: 1.61% | viability, T/C [15]: 1.43% | viability, T/C [16]: 1.48% | viability, T/C (second compound 1 µM, first compound 0.316 µM): 1.73% | viability, T/C (second compound 1 µM, first compound 1 µM): 2.54%
